From patent US20160024051A1, “SALTS AND SOLID FORMS OF ISOQUINOLINONES AND COMPOSITION COMPRISING AND METHODS OF USING THE SAME” (INFINITY PHARMACEUTICALS, INC., priority 2013, published 2016)
Counter-ions that a name gives are not always drawn. Like-named read-outs stand apart in the source and are kept apart here.

Columns and labels:
[1] = Solubility assessment using FB Hydrate Form 2; type: physicochemical
Procedure: The best solvent systems (clear solutions) were methanol:anisole 1:1 and DMSO (10 volumes, at RT), dioxane (10 volumes, 50° C.), chloroform (20 volumes, RT). […]

[2] = 2-Week comparative stability studies; type: physicochemical; details: 2 weeks; for change in appearance: 5° C. (closed), ambient (closed), ambient (closed-exposed to light), ambient (open), 60° C. (closed), RT/75% RH (open), 40° C./75% RH (open); for change of water content, as determined by KF: all seven storage conditions
Procedure: (closed); (ii) ambient (closed); (iii) ambient (closed-exposed to light); (iv) ambient (open); (v) 60° C. (closed); (vi) RT/75% RH (open); and (vii) 40° C./75% RH (open).

[3] = Stability of Hydrate Form 2: maturation in water or acetic acid: water 1:3 at constant temperature; type: physicochemical; details: 40 hours
Procedure: Both solids obtained from maturation at 25° C.

[4] = Polymorphism study: maturation (temperature cycling RT to 50° C.) in solvents, XRPD; type: physicochemical
Procedure: One of 21 solvents was added to each vial in a number of aliquots (up to 30 volumes), with shaking. All the samples were then placed under maturation between RT to 50° C. (4 hours at each temperature) for 3 days. After maturation the samples were analysed by XRPD. Clear solutions were cooled to −20° C. (freezer). If no precipitation occurred samples were evaporated at RT.
Samples were placed under maturation between RT-50° C. (4 hours cycle) for 3 days. After maturation the samples were analyzed by XRPD. Clear solutions were then cooled to −20° C. (freezer). If no precipitation occurred, samples were evaporated at RT.
(§1) The corresponding solvents and solvent mixtures were added in portions of (a total of) 5, 10, 20, and 30 volumes at 50° C., with shaking, aiming for clear solutions. After each addition, the vials were allowed to shake for 20 minutes, after which observations were made. Solutions were allowed to evaporate, whereas slurries were set for 8 hour temperature cycling maturation, between RT and 50° C., for 5 days.
The oils obtained by solvent evaporation were used for the maturation screen. Anhydrous solvents (5 volumes; 100 μL) were used in order to minimise the amount of water present. Any solutions were allowed to slowly evaporate, whereas slurries were set for 8 hour temperature cycling maturation, between RT and 50° C. […] These were matured for a further 24 hours before performing XRPD analysis.
The selected solvents and solvent mixtures (5 to 20 volumes) were added with stirring. Any solutions were allowed to slowly evaporate, whereas slurries were set for 8 hour temperature cycling maturation, between RT and 50° C., for 2 days.
Crystals were ground in order to analyse them by XRPD. Suspensions were set for temperature cycling for a total of five days after which time XRPD analysis was carried out.

[5] = Gravimetric vapour sorption (GVS); type: physicochemical
Procedure: Sorption isotherms were obtained using a Hiden IGASorp moisture sorption analyser, controlled by CFRSorp software. The sample temperature was maintained at 25° C. by a Huber re-circulating water bath. The humidity was controlled by mixing streams of dry and wet nitrogen, with a total flow rate of 250 ml/min. The relative humidity (RH) was measured by a calibrated Vaisala RH probe (dynamic range of 0-95% RH), located near the sample. The weight change, (mass relaxation) of the sample as a function of % RH was constantly monitored by the microbalance (accuracy ±0.001 mg). Typically 10-20 mg of sample was placed in a tared mesh stainless steel basket under ambient conditions. The sample was loaded and unloaded at 40% RH and 25° C. (typical room conditions). A moisture sorption isotherm was performed as outlined below (2 scans giving 1 complete cycle). The standard isotherm was performed at 25° C. at 10% RH intervals over a 0-90% RH range.
The software uses a least squares minimisation procedure together with a model of the mass relaxation, to predict an asymptotic value. The measured mass relaxation value must be within 5% of that predicted by the software, before the next % RH value is selected. The minimum equilibration time was set to 1 hour and the maximum to 4 hours. The sample was recovered after completion of the isotherm and re-analysed by XRPD.

[6] = Dissolution; type: physicochemical
Procedure: The dissolution rate for the hydrate was about 80% in 15 min at pH 1.2 and about 20% in 60 min at pH 2.5. The dissolution rate of the bis-sulfuric acid salt was 100% in 15 min at both pH 1.2 and pH 2.5.

[7] = Solubility of free base hydrate and salts versus pH (Table 24); type: physicochemical
[8] = Storage at 25° C./93% RH for 1 week, re-analysis by XRPD/HPLC; type: physicochemical; details: 1 week
[9] = Density and flowability (Hausner ratio, Carr index); type: physicochemical
Description: The Hausner ratio and the Carr index are correlated to the flowability of a powder or granular material. […] The flowability of both salts are acceptable for manufacturing.

[10] = Solubility of bis-sulfuric acid salt Form 1 in solvents at 50° C.; type: physicochemical
Procedure: as §1, with “Bis-Sulfuric acid salt Form 1 of Compound 1 (ca. 35 mg) was weighed into vials. The” for “The”

[11] = Thermodynamic aqueous solubility; type: physicochemical; details: salts scaled-up at 0.5 gram
[12] = PK properties in non-clinical animal species (all species); type: in vivo, CD-1 mouse, Wistar rat, Cyno monkey, Beagle dog; details: animal pharmacology models and non-clinical toxicology species
Procedure: For example, Compound 1 bis-hydrogen sulfate monohydrate was evaluated in CD-1 mouse, Wistar rat, Cyno monkey, and Beagle dog. Cross species allometric scaling of CL (drug clearance) and Vss (volume at steady state) predicts low CL, high Vss and long T112 for Compound 1 in humans.

[13] = Storage at 40° C./75% RH (elevated humidity) for 1 week, re-analysis by XRPD/HPLC; details: salt screen solids, 1 week, XRPD pattern or observation
Procedure: The crystalline solids were filtered, dried at ambient conditions, and stored at 40° C./75% RH for 1 week and analyzed by ^1H NMR/IC.
Samples from the screen using amorphous free base Compound 1 were analysed by ^1H-NMR and DSC, and re-analysis by XRPD was also carried out after drying at 50° C./vacuum and storage at 40° C./75% RH (the same sample was dried and stored at elevated humidity).

## COc1cc(-c2cccc3cc([C@H](C)Nc4nc(N)ncc4C#N)n(-c4ccccc4)c(=O)c23)ccn1 [Form 2 of the free base of Compound 1]
[1]; 2-methyltetrahydrofuran
  volumes of solvent giving a clear solution: 50 volumes
[1]; DCM
  volumes of solvent giving a clear solution: 100 volumes
[1]; DCM:methanol 1:1
  volumes of solvent giving a clear solution: 100 volumes
[1]; DME
  volumes of solvent giving a clear solution: 100 volumes
[1]; DMSO, at RT
  volumes of solvent giving a clear solution: 10 volumes
[1]; THF
  volumes of solvent giving a clear solution: 100 volumes
[1]; THF:5% water
  volumes of solvent giving a clear solution: 50 volumes
[1]; acetonitrile/5% water
  volumes of solvent giving a clear solution: 100 volumes
[1]; chloroform, RT
  volumes of solvent giving a clear solution: 20 volumes
[1]; dioxane, 50° C.
  volumes of solvent giving a clear solution: 10 volumes
[1]; ethanol:anisole
  volumes of solvent giving a clear solution: 50 volumes
[1]; methanol
  volumes of solvent giving a clear solution: 100 volumes
[1]; methanol:anisole 1:1, at RT
  volumes of solvent giving a clear solution: 10 volumes
[2]
  change in appearance: No change in appearance
  change of water content, as determined by KF: No significant change
[3]; acetic acid: water 1:3, 25° C.
  XRPD form after maturation: unchanged Form 2
[3]; acetic acid: water 1:3, 90° C.
  XRPD form after maturation: some evidence of the acetic acid solvate Form 6 mixed with a majority of Form 2
[3]; pure water, 25° C.
  XRPD form after maturation: unchanged Form 2
[3]; pure water, 90° C.
  XRPD form after maturation: Form 2
[4]; three days, listed as hydrate Form 2 of free base Compound 1
  XRPD form after maturation in acetic acid: water 1:1: did not show any changes in form
[5]
  GVS: changes in the XRPD after the experiment: very slight changes
[5]; between 40-50% RH
  GVS: moisture uptake on loading: 1 % w/w
[5]; between 90-10% on desorption
  GVS: moisture content on desorption: 5.7 % w/w
[6]; in 15 min at pH 1.2, listed as hydrate
  dissolution rate: about 80%
[6]; in 60 min at pH 2.5
  dissolution rate: about 20%
[7]; 0.1N HCl, 37° C., at saturation
  Solubility: 16000 µg/mL
[7]; Simulated Gastric Fluid
  Solubility: 8130 µg/mL
[7]; Simulated Intestinal Fluid
  Solubility: 2 µg/mL
[7]; citrate buffer, pH 2.5
  Solubility: 0.2-0.3 mg/mL ^
[8]
  stability on storage at 25° C./93% RH: stable
[8]; listed as Free base Form 2
  stability on storage at 25° C./93% RH: mainly the same pattern with a few differences

## COc1cc(-c2cccc3cc([C@H](C)Nc4nc(N)ncc4C#N)n(-c4ccccc4)c(=O)c23)ccn1 [bis-sulfuric acid monohydrate salt of (S)-2-amino-4-((1-(8-(2-methoxypyridin-4-yl)-1-oxo-2-phenyl-1,2-dihydroisoquinolin-3-yl)ethyl)amino)pyrimidine-5-carbonitrile]
[9]
  flowability compared to the hydrate: improved flowability
[2]
  change in appearance: No change in appearance
  change of water content, as determined by KF: No significant change
[4]; 30 volumes of solvent, RT to 50° C., five days, all solvents other than acetic acid/water, methanol, ethanol/water
  changes on maturation of slurries: did not show any changes
[10]; acetic acid/water 1:3 at 50° C.
  volumes of solvent giving a clear solution: 5 volumes
[10]; methanol at 50° C.
  volumes of solvent giving a clear solution: 5 volumes
[11]
  Thermodynamic aqueous solubility: > 51 mg/mL
[5]; hygroscopicity in words, 25° C.
  GVS Single cycle: Slightly hygroscopic
[6]; in 15 min at pH 1.2, listed as bis-sulfuric acid salt
  dissolution rate: 100%
[6]; in 15 min at pH 2.5
  dissolution rate: 100%
[12]
  oral pharmacokinetics: good oral pharmacokinetics
[13]
  Storage 40° C./75% RH: salt Pattern 1
[7]; Simulated Gastric Fluid, thermodynamic from solid, read-out: Solubility
  Solubility: > 17000 µg/mL
[7]; Simulated Intestinal Fluid, fassgf or other biorelevant, thermodynamic from solid, read-out: Solubility
  Solubility: 40 µg/mL
[7]; aqueous buffer, thermodynamic from solid, citrate buffer, pH 2.5, at 37° C., read-out: Solubility
  Solubility: > 12000 µg/mL
[7]; aqueous buffer, thermodynamic from solid, citrate buffer, pH 2.5, at RT, read-out: Solubility
  Solubility: > 12000 µg/mL
[7]; aqueous buffer, thermodynamic from solid, pH 1.65, 37° C., read-out: Solubility
  Solubility: > 12000 µg/mL
[7]; aqueous buffer, thermodynamic from solid, pH 1.65, RT, read-out: Solubility
  Solubility: > 12000 µg/mL
[7]; aqueous buffer, thermodynamic from solid, pH 1.9, 37° C., read-out: Solubility
  Solubility: > 12000 µg/mL
[7]; aqueous buffer, thermodynamic from solid, pH 1.9, RT, read-out: Solubility
  Solubility: > 12000 µg/mL
[7]; aqueous buffer, thermodynamic from solid, pH 2.5, 37° C., read-out: Solubility
  Solubility: > 12000 µg/mL
[7]; aqueous buffer, thermodynamic from solid, pH 2.5, RT, read-out: Solubility
  Solubility: > 12000 µg/mL
[7]; aqueous buffer, thermodynamic from solid, pH 3.0, 37° C., read-out: Solubility
  Solubility: 3450 µg/mL
[7]; aqueous buffer, thermodynamic from solid, pH 3.0, RT, read-out: Solubility
  Solubility: 1580 µg/mL
[7]; aqueous buffer, thermodynamic from solid, pH 3.8, 37° C., read-out: Solubility
  Solubility: 280 µg/mL
[7]; aqueous buffer, thermodynamic from solid, pH 3.8, RT, read-out: Solubility
  Solubility: 290 µg/mL
[7]; simulated gastric fluid, thermodynamic from solid, 0.1N HCl, 37° C., at saturation, read-out: Solubility
  Solubility: > 90000 µg/mL
[7]; thermodynamic from solid, Water (pH 1.16), read-out: Solubility
  Solubility: > 60000 µg/mL
[7]; up to pH 3
  solubility compared to the hydrate: significantly higher solubility
